Converted amounts (≈) assume the structure as drawn.
Assays:
Test in all cases: ≥ marks a high value that may be exact or a test limit, other limits are often not marked, values filed in µg/mL are converted to µM
[1] = test system: Escherichia coli ATCC 25922
[2] = test system: Candida albicans ATCC 2002
[3] = test system: Staphylococcus aureus ATCC 25923
[4] = test system: Pseudomonas aeruginosa CMCCB 10104

Structure (SMILES)	MIC [1] [µM]	MIC [2] [µM]	MIC [3] [µM]	MIC [4] [µM]
CC[C@H](C)[C@@H]1NC(=O)[C@H](C)NC(=O)[C@@H](NC(=O)[C@H](Cc2ccccc2)NC(=O)[C@H](C)NC(=O)[C@@H](NC(=O)[C@@H]2CCCN2C(=O)[C@H](CC(C)C)NC(=O)[C@@H](NC(=O)[C@H](CC(N)=O)NC(=O)[C@H](C)NC(=O)[C@H](C)NC(=O)[C@@H](NC(=O)[C@H](CCCN=C(N)N)NC(=O)[C@@H](NC(=O)[C@@H](NC(=O)[C@H](C)NC(=O)[C@@H]2CCCN2C(=O)[C@H](CC(C)C)NC(=O)[C@@H](N)Cc2ccccc2)C(C)C)[C@@H](C)CC)C(C)C)C(C)C)[C@@H](C)O)CSSC[C@@H](C(=O)O)NC(=O)[C@H](CCCCN)NC(=O)[C@H](CCCCN)NC(=O)[C@H](CO)NC1=O [FLPAVIRVAANVLPTAFCAISKKC]	2.61 (≈ 6.59 µg/mL)	1.3 (≈ 3.3 µg/mL)	2.61 (≈ 6.59 µg/mL)	5.21 (≈ 13.2 µg/mL)
CC[C@H](C)[C@@H]1NC(=O)[C@H](CCCCN)NC(=O)[C@@H](NC(=O)[C@H](CCCCN)NC(=O)[C@H](CC(C)C)NC(=O)[C@H](CC(N)=O)NC(=O)[C@H](CC(=O)O)NC(=O)[C@H](CC(C)C)NC(=O)[C@H](CC(C)C)NC(=O)[C@@H](NC(=O)[C@@H](NC(=O)[C@H](C)NC(=O)[C@@H](NC(=O)[C@H](CC(N)=O)NC(=O)[C@H](CCCCN)NC(=O)[C@H](C)NC(=O)[C@@H](NC(=O)[C@H](CC(N)=O)NC(=O)[C@H](CCCCN)NC(=O)[C@H](C)NC(=O)[C@@H](NC(=O)[C@H](CC(N)=O)NC(=O)[C@H](CCSC)NC(=O)[C@H](Cc2ccccc2)NC(=O)CN)[C@@H](C)O)C(C)C)C(C)C)C(C)C)[C@@H](C)O)CSSC[C@@H](C(=O)O)NC(=O)CNC(=O)CNC(=O)[C@H]([C@@H](C)O)NC1=O [GFMNTAKNVAKNVAVTLLDNLKCKITGGC]	2.94 (≈ 8.89 µg/mL)	2.94 (≈ 8.89 µg/mL)	5.89 (≈ 17.8 µg/mL)	5.89 (≈ 17.8 µg/mL)
CC[C@H](C)[C@H](NC(=O)CN)C(=O)N[C@@H](CC(C)C)C(=O)NCC(=O)N[C@@H](CC(N)=O)C(=O)N[C@H](C(=O)N[C@H](C(=O)NCC(=O)N[C@@H](CCSC)C(=O)NCC(=O)N[C@@H](CCCCN)C(=O)N[C@@H](CCCCN)C(=O)N[C@H](C(=O)N[C@H](C(=O)N[C@H]1CSSC[C@@H](C(=O)O)NC(=O)[C@H](CC(C)C)NC(=O)CNC(=O)[C@H](CO)NC(=O)[C@H](CC(C)C)NC(=O)CNC1=O)C(C)C)C(C)C)C(C)C)[C@@H](C)CC [GILGNIVGMGKKVVCGLSGLC]	5.6 (≈ 11.3 µg/mL)	3.32 (≈ 6.69 µg/mL)	5.6 (≈ 11.3 µg/mL)	11.2 (≈ 22.6 µg/mL)
CC[C@H](C)[C@H](NC(=O)CNC(=O)[C@H](CCCCN)NC(=O)CNC(=O)[C@H](C)NC(=O)[C@H](Cc1ccccc1)NC(=O)[C@H](CCCCN)NC(=O)[C@H](CO)NC(=O)[C@H](Cc1ccccc1)NC(=O)[C@H](CC(C)C)NC(=O)CN)C(=O)N[C@H](C(=O)N[C@@H](CC(N)=O)C(=O)N[C@@H](Cc1ccccc1)C(=O)N[C@@H](CC(C)C)C(=O)N[C@H](C(=O)N[C@@H](CCC(=O)O)C(=O)NCC(=O)N[C@H](C(=O)N[C@@H](CCC(=O)O)C(=O)O)C(C)C)[C@@H](C)CC)C(C)C [GLFSKFAGKGIVNFLIEGVE]	14.3 (≈ 30.5 µg/mL)	14.3 (≈ 30.5 µg/mL)	7.2 (≈ 15.3 µg/mL)	7.2 (≈ 15.3 µg/mL)
CC(C)C[C@H](NC(=O)CN)C(=O)N[C@@H](CC(C)C)C(=O)N[C@@H](CC(=O)O)C(=O)N[C@H](C(=O)N[C@@H](Cc1ccccc1)C(=O)N[C@@H](CCCCN)C(=O)N[C@@H](CC(N)=O)C(=O)N[C@@H](CC(C)C)C(=O)N[C@@H](C)C(=O)N[C@@H](CC(C)C)C(=O)N[C@@H](CC(N)=O)C(=O)N[C@@H](C)C(=O)N[C@@H](C)C(=O)N[C@@H](CCC(=O)O)C(=O)N[C@@H](CO)C(=O)N[C@@H](C)C(=O)NCC(=O)N[C@H](C(=O)N[C@@H](CO)C(=O)N[C@H](C(=O)N[C@@H](CC(C)C)C(=O)N[C@@H](CC(N)=O)C(=O)N[C@@H](CO)C(=O)N[C@@H](CC(C)C)C(=O)N[C@@H](CO)C(=O)N[C@H]1CSSC[C@@H](C(=O)O)NC(=O)[C@H]([C@@H](C)O)NC(=O)[C@H](CCCCN)NC(=O)[C@H](CO)NC(=O)[C@H](CC(C)C)NC(=O)[C@H](CCCCN)NC1=O)C(C)C)C(C)C)[C@@H](C)O [GLLDTFKNLALNAAESAGVSVLNSLSCKLSKTC]	5.94 (≈ 20 µg/mL)	2.97 (≈ 9.99 µg/mL)	2.97 (≈ 9.99 µg/mL)	5.94 (≈ 20 µg/mL)

Second part, the molecule after the results:

MIC [1] [µM]	MIC [2] [µM]	MIC [3] [µM]	MIC [4] [µM]	Structure (SMILES)
2.56 (≈ 8.6 µg/mL)	5.11 (≈ 17.2 µg/mL)	2.56 (≈ 8.6 µg/mL)	2.56 (≈ 8.6 µg/mL)	CC[C@H](C)[C@H](NC(=O)[C@@H](NC(=O)[C@H](CC(=O)O)NC(=O)[C@H](CC(C)C)NC(=O)[C@H](CC(C)C)NC(=O)CN)[C@@H](C)O)C(=O)N[C@@H](CCCCN)C(=O)N[C@@H](CC(N)=O)C(=O)N[C@@H](CCSC)C(=O)N[C@@H](C)C(=O)N[C@@H](CC(C)C)C(=O)N[C@@H](CC(N)=O)C(=O)N[C@@H](C)C(=O)N[C@@H](C)C(=O)N[C@@H](CCCCN)C(=O)N[C@@H](CO)C(=O)N[C@@H](C)C(=O)NCC(=O)N[C@H](C(=O)N[C@@H](CO)C(=O)N[C@H](C(=O)N[C@@H](CC(C)C)C(=O)N[C@@H](CC(N)=O)C(=O)N[C@H](C(=O)N[C@@H](CC(C)C)C(=O)N[C@@H](CO)C(=O)N[C@H]1CSSC[C@@H](C(=O)O)NC(=O)[C@H]([C@@H](C)O)NC(=O)[C@H](CCCCN)NC(=O)[C@H](CO)NC(=O)[C@H](CC(C)C)NC(=O)[C@H](CCCCN)NC1=O)[C@@H](C)O)C(C)C)C(C)C [GLLDTIKNMALNAAKSAGVSVLNTLSCKLSKTC]
0.749 (≈ 3.3 µg/mL)	0.749 (≈ 3.3 µg/mL)	1.5 (≈ 6.6 µg/mL)	1.5 (≈ 6.6 µg/mL)	CC[C@H](C)[C@H](NC(=O)CNC(=O)[C@@H](NC(=O)[C@H](CCCN=C(N)N)NC(=O)[C@@H](NC(=O)[C@@H](NC(=O)[C@H](CC(=O)O)NC(=O)[C@H](CCSC)NC(=O)CNC(=O)[C@@H](NC(=O)[C@H](CCC(=O)O)NC(=O)[C@H](CCCCN)NC(=O)CNC(=O)[C@@H](NC(=O)[C@H](CC(N)=O)NC(=O)[C@H](CCCCN)NC(=O)[C@H](C)NC(=O)CNC(=O)[C@H](CCCCN)NC(=O)[C@@H](NC(=O)[C@H](Cc1ccccc1)NC(=O)[C@H](CC(C)C)NC(=O)[C@H](CC(N)=O)NC(=O)[C@H](CCCCN)NC(=O)[C@@H](NC(=O)[C@H](C)NC(=O)[C@H](CCCCN)NC(=O)CNC(=O)[C@H](CO)NC(=O)[C@@H](NC(=O)[C@@H](N)CCCCN)[C@@H](C)CC)[C@@H](C)CC)[C@@H](C)CC)C(C)C)C(C)C)C(C)C)C(C)C)[C@@H](C)O)C(=O)N[C@@H](CC(=O)O)C(=O)N[C@H](C(=O)N[C@H](C(=O)NCC(=O)N[C@H]1CSSC[C@@H](C(=O)O)NC(=O)[C@H](CCC(=O)O)NC(=O)CNC(=O)[C@H](CCCCN)NC(=O)[C@H]([C@@H](C)CC)NC(=O)[C@H](CCCCN)NC1=O)C(C)C)C(C)C [KISGKAIKNLFIKGAKNVGKEVGMDVVRTGIDVVGCKIKGEC]
2.4 (≈ 6.2 µg/mL)	9.59 (≈ 24.8 µg/mL)	4.79 (≈ 12.4 µg/mL)	4.79 (≈ 12.4 µg/mL)	CC[C@H](C)[C@H](NC(=O)[C@@H](N)C(C)C)C(=O)N[C@H](C(=O)N[C@@H](Cc1ccccc1)C(=O)N[C@H](C(=O)N[C@@H](C)C(=O)N[C@@H](CO)C(=O)N[C@H](C(=O)N[C@@H](C)C(=O)N[C@@H](C)C(=O)N[C@@H](CCC(=O)O)C(=O)N[C@@H](CCSC)C(=O)N[C@@H](CCSC)C(=O)N[C@@H](CCC(N)=O)C(=O)N[C@@H](Cc1cnc[nH]1)C(=O)N[C@H](C(=O)N[C@@H](Cc1ccc(O)cc1)C(=O)N[C@H]1CSSC[C@@H](C(=O)O)NC(=O)[C@H](CCCCN)NC(=O)[C@H](CCCCN)NC(=O)[C@H](CO)NC(=O)[C@H](C)NC(=O)[C@H](C)NC1=O)C(C)C)C(C)C)C(C)C)C(C)C [VIVFVASVAAEMMQHVYCAASKKC]
